Results taken from PMC10447463, “Data-mining unveils structure–property–activity correlation of viral infectivity enhancing self-assembling peptides” (Nature Communications, 2023).
Like-named read-outs stand apart in the source and are kept apart here.

Key:
[1] = assay type: physicochemical; conditions: for ThT Cat. / ThT-Fluorescence (categorical): ThT-active if fluorescence at least twice the control
In short: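 Preformed peptide fibrils (1 mg/mL) mixed with 50 µM ThT in PBS, 15 min at RT, fluorescence ex 440/em 488 nm versus PBS blank, triplicates. Zeta potential: peptides at 1 mg/mL in PBS pH 7.4, aged 1 d at RT, diluted in 1 mM KCl, Smoluchowski from electrophoretic mobility.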

[2] = test system: HIV-1 infection of TZM-bl cells; assay: HIV-1 infectivity enhancement assay, β-galactosidase luminescence; assay type: cell-based; conditions: for Rel-EFC / Log10 Infection Rel EFC: 1.3 µM peptide; for Rel-EFC: infection relative to EF-C (QCKIKQIINMWQ = 1); for Log10 Infection Rel EFC: log10 of infection relative to EF-C; for Log Infectivity: Fig. S7 panel A (plotted against β-sheet content), Log10 infection relative to EF-C, asymmetric std dev errors; for Log10 Infection Rel EF-C: HIV-1 infection of TZM-bl cells; for Log10 of Rel to EFC (Feb2021): Log10 of infection relative to EF-C, all peptides of FigS16; for Abs. Inf.: β-galactosidase luminescence
[3] = ThT fluorescence category, 1 if Rel. ThT >2
[4] = Log10 of infection rate relative to EF-C, Figure 3A source data
[5] = infection rate relative to EF-C, log10, data of Figure 2D
[6] = infection rate relative to EF-C, log10, source data of Figure 2C

Row | Substance | Tht category (> 2 to blank = +) ([1]; Fig S10 panel D) | Tht category (> 2 to blank = +) ([1]; FigS12 panel A) | ThT Cat, ([1]; FigS12 panel B) | ThT Cat, ([1]; ThT category, 1 if Rel. ThT >2) | ThT Cat. [1, 3] | ThT Cat. / ThT-Fluorescence (categorical) [1] | Rel-EFC [2] | Log10 Infection Rel EFC [2] | Log Infectivity ([2]; TZM-bl cells) | Log10 Infection Rel EF-C [2, 4] | Log10 Infection Rel EF-C [2, 5] | Log10 Infection Rel EF-C [2, 6] | ThT Cat. ([1]; ThT category, 1 if Rel. ThT >2) | Log10 of Rel to EFC (Feb2021) [2] | Abs. Inf. ([2]; absolute infection signal, HIV-1 on TZM-bl cells) | Log10 Inf. rel. to EF-C ([2]; log10 of HIV-1 infection of TZM-bl cells relative to EF-C (EF-C = 0)) | Abs. Inf. ([2]; absolute HIV-1 infection signal, TZM-bl cells)
1 | HHHHKAKAKAKAYYYY | 0 (ThT-inactive (N-Fold <2)) | 0 (ThT-inactive (N-Fold <2)) | 0 (ThT-inactive (N-Fold <2)) | 0 (ThT-inactive (N-Fold <2)) | 0 (ThT-inactive (N-Fold <2)) | 0 (ThT-inactive (N-Fold <2)) | 0,01 | -1,88 | -1.883 | -1.88 | -1.883 | -1.883 |  |  |  |  | 
2 | KIKIQII | 0 (ThT-inactive (N-Fold <2)) | 0 (ThT-inactive (N-Fold <2)) | 0 (ThT-inactive (N-Fold <2)) | 0 (ThT-inactive (N-Fold <2)) | 0 (ThT-inactive (N-Fold <2)) | 0 (ThT-inactive (N-Fold <2)) | 0,02 | -1,73 | -1.729 | -1.73 | -1.729 | -1.729 |  |  |  |  | 
3 | CKFKQFFNM | 1 (ThT. Cat is 1, if Rel. ThT >2) |  |  | 1 (ThT. Cat is 1, if Rel. ThT >2) |  | 1 (ThT. Cat is 1, if Rel. ThT >2) | 0,41 | -0,39 | -0.3892 | -0.39 | -0.3892 | -0.3892 | 1 (ThT. Cat is 1, if Rel. ThT >2) | -0.39 | 15720 | -0.3892 | 
4 | CQFQFQF | 1 (ThT. Cat is 1, if Rel. ThT >2) |  |  | 1 (ThT. Cat is 1, if Rel. ThT >2) | 1 (ThT. Cat is 1, if Rel. ThT >2) | 1 (ThT. Cat is 1, if Rel. ThT >2) | 0,35 | -0,45 | -0.4519 | -0.45 | -0.4519 | -0.4519 |  | -0.45 |  |  | 
5 | KIKIKIKI | 1 (ThT. Cat is 1, if Rel. ThT >2) | 1 (ThT. Cat is 1, if Rel. ThT >2) | 1 (ThT. Cat is 1, if Rel. ThT >2) | 1 (ThT. Cat is 1, if Rel. ThT >2) | 1 (ThT. Cat is 1, if Rel. ThT >2) | 1 (ThT. Cat is 1, if Rel. ThT >2) | 0,03 | -1,49 | -1.487 | -1.49 | -1.487 | -1.487 |  |  |  |  | 
6 | CKIKIQINMW | 0 (ThT-inactive (N-Fold <2)) |  |  | 0 (ThT-inactive (N-Fold <2)) |  | 0 (ThT-inactive (N-Fold <2)) | 1,29 | 0,11 | 0.1122 | 0.11 | 0.1122 | 0.1122 | 0 (ThT-inactive (N-Fold <2)) | 0.11 |  |  | 7253
